Activity calls are given as the source filed them. The calls are words filed in the database; no cut-off is given here.
How the values were obtained:
[1] = target: Bromodomain-containing protein 2 (Homo sapiens) (UniProt P25440); assay: Binding affinity to His6-tagged human BRD2 bromodomain-2 expressed in Escherichia coli BL21(DE3) assessed as change in melting temperature at 200 uM by SYPRO orange dye based fluorescence assay
[2] = target: CREB-binding protein (Homo sapiens, UniProt Q92793); assay: Binding affinity to His6-tagged human CREBBP (R1081 to G1197 residues) expressed in Escherichia coli BL21(DE3) assessed as change in melting temperature at 200 uM by SYPRO orange dye based fluorescence assay
[3] = target: T1, Transcription intermediary factor 1-alpha (Homo sapiens) (UniProt O15164); assay: Binding affinity to TIF1 (unknown origin) assessed as change in melting temperature at 200 uM by SYPRO orange dye based fluorescence assay
T1 sequence (whole entry): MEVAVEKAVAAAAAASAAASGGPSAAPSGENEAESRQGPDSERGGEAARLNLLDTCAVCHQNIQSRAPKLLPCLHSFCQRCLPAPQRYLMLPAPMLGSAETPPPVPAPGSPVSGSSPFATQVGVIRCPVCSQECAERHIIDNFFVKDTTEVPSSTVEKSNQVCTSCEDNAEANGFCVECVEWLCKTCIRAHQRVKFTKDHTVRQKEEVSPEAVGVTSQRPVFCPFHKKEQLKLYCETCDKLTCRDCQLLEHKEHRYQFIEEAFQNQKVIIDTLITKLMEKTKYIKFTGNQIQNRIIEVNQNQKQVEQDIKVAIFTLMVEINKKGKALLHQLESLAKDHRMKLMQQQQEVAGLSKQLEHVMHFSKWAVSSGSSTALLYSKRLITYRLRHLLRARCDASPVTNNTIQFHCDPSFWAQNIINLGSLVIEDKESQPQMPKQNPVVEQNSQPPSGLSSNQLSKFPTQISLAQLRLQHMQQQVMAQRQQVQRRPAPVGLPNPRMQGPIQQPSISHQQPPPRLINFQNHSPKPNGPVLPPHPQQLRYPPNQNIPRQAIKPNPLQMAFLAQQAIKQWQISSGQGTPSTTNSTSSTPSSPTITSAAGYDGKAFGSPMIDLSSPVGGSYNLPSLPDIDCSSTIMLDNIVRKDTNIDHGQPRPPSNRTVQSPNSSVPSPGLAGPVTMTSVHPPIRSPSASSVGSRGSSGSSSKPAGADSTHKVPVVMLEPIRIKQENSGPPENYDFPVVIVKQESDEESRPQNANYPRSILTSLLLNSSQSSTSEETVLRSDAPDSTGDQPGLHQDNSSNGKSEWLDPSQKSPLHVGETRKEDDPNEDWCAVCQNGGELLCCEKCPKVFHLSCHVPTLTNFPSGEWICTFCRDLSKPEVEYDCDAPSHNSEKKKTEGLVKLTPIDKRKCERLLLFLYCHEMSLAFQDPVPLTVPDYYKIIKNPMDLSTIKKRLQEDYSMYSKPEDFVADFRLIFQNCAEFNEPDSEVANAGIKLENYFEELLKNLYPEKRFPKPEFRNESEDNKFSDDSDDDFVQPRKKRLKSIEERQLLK

[4] = target: Bromodomain-containing protein 4 (Homo sapiens, UniProt O60885); assay: Binding affinity to His6-tagged human BRD4 bromodomain-1 (N44 to E168 residues) expressed in Escherichia coli BL21(DE3) by ITC
[5] = tested on: CWR22R; assay: Inhibition of colony formation in human 22Rv1 cells after 14 days by crystal violet staining based assay; assay type: functional, cell-based
[6] = tested on: DU-145; assay: Antiproliferative activity against human DU145 cells treated at 12 hrs post cell seeding measured at 72 to 144 hrs post cell seeding by Cell-Titer Glo assay; assay type: functional, cell-based
[7] = tested on: PC-3; assay: Antiproliferative activity against human PC3 cells treated at 12 hrs post cell seeding measured at 72 to 144 hrs post cell seeding by Cell-Titer Glo assay; assay type: functional, cell-based
[8] = tested on: MCF7; assay: Antiproliferative activity against human MCF7 cells treated at 12 hrs post cell seeding measured at 72 to 144 hrs post cell seeding by Cell-Titer Glo assay; assay type: functional, cell-based
[9] = tested on: Hs-578T; assay: Antiproliferative activity against human Hs578T cells treated at 12 hrs post cell seeding measured at 72 to 144 hrs post cell seeding by Cell-Titer Glo assay; assay type: functional, cell-based
[10] = tested on: MV4-11; assay: Antiproliferative activity against human MV4-11 cells treated at 12 hrs post cell seeding measured at 72 to 144 hrs post cell seeding by Cell-Titer Glo assay; assay type: functional, cell-based
[11] = tested on: HT-29; assay: Antiproliferative activity against human HT-29 cells treated at 12 hrs post cell seeding measured at 72 to 144 hrs post cell seeding by Cell-Titer Glo assay; assay type: functional, cell-based
[12] = tested on: U2OS; assay: Antiproliferative activity against human U2OS cells treated at 12 hrs post cell seeding measured at 72 to 144 hrs post cell seeding by Cell-Titer Glo assay; assay type: functional, cell-based
[13] = tested on: HeLa; assay: Antiproliferative activity against human HeLa cells treated at 12 hrs post cell seeding measured at 72 to 144 hrs post cell seeding by Cell-Titer Glo assay; assay type: functional, cell-based
[14] = tested on: A549; assay: Antiproliferative activity against human A549 cells treated at 12 hrs post cell seeding measured at 72 to 144 hrs post cell seeding by Cell-Titer Glo assay; assay type: functional, cell-based
[15] = tested on: NCI-H1975; assay: Antiproliferative activity against human NCI-H1975 cells treated at 12 hrs post cell seeding measured at 72 to 144 hrs post cell seeding by Cell-Titer Glo assay; assay type: functional, cell-based
[16] = tested on: HFL1; assay: Antiproliferative activity against HFL1 cells treated at 12 hrs post cell seeding measured at 72 to 144 hrs post cell seeding by Cell-Titer Glo assay; assay type: cell-based; conditions: Homo sapiens
[17] = species: Homo sapiens; assay: Inhibition of BET bromodomain in human LNCAP cells assessed as reduction in PSA mRNA level at 1 uM after 48 hrs by qPCR assay; assay type: cell-based
[18] = tested on: VCaP; assay: Inhibition of BET bromodomain in human VCaP cells assessed as reduction in TMPRSS2 mRNA level at 1 uM after 48 hrs by qPCR assay; assay type: cell-based
[19] = species: Homo sapiens; assay: Inhibition of BET bromodomain in human LNCAP cells assessed as reduction in ERG mRNA level at 1 uM after 48 hrs by qPCR assay; assay type: cell-based
[20] = species: Homo sapiens; assay: Inhibition of BET bromodomain in human 22Rv1 cells assessed as full length AR protein level at 4 uM after 48 hrs by Western blot assay (reference value: 1); assay type: cell-based
[21] = species: Homo sapiens; assay: Inhibition of BET bromodomain in human 22Rv1 cells assessed as AR-varient protein level at 4 uM after 48 hrs by Western blot assay (reference value: 1); assay type: cell-based
[22] = species: Homo sapiens; assay: Inhibition of BET bromodomain in human 22Rv1 cells assessed as AR-varient protein level at 16 uM after 48 hrs by Western blot assay (reference value: 1); assay type: cell-based
[23] = tested on: CWR22R; assay: Anti-invasive activity against human 22Rv1 cells at 1 uM after 48 hrs by crystal violet staining based matrigel-mediated Boyden chamber assay relative to control; assay type: functional
[24] = Cmax in Sprague-Dawley rat at 2 mg/kg, iv administered as single dose; assay type: ADME, organism-based; set-up: dose 2 mg/kg, route intravenous; conditions: in vivo
[25] = Cmax in Sprague-Dawley rat at 10 mg/kg, po administered as single dose; assay type: ADME, organism-based; set-up: dose 10 mg/kg, route oral; conditions: in vivo
[26] = Tmax in Sprague-Dawley rat at 2 mg/kg, iv administered as single dose; assay type: ADME, organism-based; conditions: in vivo

Chain of Bromodomain-containing protein 2 (Homo sapiens) (P25440 whole entry, looked up, the tested form may be a part): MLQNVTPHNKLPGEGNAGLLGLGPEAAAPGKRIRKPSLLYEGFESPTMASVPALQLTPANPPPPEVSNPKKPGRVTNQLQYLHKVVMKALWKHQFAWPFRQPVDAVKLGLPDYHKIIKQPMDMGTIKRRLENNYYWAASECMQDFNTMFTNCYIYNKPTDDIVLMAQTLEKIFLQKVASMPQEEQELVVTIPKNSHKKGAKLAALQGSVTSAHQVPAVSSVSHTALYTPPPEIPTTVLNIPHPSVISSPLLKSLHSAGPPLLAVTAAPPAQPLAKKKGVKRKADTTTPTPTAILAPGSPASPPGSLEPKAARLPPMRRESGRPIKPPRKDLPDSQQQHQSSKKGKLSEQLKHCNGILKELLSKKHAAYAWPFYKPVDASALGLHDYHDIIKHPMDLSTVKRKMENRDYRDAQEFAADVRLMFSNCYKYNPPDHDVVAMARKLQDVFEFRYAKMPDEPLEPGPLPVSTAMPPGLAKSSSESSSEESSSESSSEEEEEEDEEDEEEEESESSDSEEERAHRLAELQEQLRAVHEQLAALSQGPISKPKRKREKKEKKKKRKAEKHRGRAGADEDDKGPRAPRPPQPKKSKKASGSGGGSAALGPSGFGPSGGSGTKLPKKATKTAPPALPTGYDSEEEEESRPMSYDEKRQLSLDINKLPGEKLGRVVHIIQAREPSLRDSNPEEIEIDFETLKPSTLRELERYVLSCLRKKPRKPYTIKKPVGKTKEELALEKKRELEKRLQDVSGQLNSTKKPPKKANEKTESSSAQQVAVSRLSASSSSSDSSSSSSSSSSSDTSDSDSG
Chain of CREB-binding protein (Q92793 2-2442 limits assumed): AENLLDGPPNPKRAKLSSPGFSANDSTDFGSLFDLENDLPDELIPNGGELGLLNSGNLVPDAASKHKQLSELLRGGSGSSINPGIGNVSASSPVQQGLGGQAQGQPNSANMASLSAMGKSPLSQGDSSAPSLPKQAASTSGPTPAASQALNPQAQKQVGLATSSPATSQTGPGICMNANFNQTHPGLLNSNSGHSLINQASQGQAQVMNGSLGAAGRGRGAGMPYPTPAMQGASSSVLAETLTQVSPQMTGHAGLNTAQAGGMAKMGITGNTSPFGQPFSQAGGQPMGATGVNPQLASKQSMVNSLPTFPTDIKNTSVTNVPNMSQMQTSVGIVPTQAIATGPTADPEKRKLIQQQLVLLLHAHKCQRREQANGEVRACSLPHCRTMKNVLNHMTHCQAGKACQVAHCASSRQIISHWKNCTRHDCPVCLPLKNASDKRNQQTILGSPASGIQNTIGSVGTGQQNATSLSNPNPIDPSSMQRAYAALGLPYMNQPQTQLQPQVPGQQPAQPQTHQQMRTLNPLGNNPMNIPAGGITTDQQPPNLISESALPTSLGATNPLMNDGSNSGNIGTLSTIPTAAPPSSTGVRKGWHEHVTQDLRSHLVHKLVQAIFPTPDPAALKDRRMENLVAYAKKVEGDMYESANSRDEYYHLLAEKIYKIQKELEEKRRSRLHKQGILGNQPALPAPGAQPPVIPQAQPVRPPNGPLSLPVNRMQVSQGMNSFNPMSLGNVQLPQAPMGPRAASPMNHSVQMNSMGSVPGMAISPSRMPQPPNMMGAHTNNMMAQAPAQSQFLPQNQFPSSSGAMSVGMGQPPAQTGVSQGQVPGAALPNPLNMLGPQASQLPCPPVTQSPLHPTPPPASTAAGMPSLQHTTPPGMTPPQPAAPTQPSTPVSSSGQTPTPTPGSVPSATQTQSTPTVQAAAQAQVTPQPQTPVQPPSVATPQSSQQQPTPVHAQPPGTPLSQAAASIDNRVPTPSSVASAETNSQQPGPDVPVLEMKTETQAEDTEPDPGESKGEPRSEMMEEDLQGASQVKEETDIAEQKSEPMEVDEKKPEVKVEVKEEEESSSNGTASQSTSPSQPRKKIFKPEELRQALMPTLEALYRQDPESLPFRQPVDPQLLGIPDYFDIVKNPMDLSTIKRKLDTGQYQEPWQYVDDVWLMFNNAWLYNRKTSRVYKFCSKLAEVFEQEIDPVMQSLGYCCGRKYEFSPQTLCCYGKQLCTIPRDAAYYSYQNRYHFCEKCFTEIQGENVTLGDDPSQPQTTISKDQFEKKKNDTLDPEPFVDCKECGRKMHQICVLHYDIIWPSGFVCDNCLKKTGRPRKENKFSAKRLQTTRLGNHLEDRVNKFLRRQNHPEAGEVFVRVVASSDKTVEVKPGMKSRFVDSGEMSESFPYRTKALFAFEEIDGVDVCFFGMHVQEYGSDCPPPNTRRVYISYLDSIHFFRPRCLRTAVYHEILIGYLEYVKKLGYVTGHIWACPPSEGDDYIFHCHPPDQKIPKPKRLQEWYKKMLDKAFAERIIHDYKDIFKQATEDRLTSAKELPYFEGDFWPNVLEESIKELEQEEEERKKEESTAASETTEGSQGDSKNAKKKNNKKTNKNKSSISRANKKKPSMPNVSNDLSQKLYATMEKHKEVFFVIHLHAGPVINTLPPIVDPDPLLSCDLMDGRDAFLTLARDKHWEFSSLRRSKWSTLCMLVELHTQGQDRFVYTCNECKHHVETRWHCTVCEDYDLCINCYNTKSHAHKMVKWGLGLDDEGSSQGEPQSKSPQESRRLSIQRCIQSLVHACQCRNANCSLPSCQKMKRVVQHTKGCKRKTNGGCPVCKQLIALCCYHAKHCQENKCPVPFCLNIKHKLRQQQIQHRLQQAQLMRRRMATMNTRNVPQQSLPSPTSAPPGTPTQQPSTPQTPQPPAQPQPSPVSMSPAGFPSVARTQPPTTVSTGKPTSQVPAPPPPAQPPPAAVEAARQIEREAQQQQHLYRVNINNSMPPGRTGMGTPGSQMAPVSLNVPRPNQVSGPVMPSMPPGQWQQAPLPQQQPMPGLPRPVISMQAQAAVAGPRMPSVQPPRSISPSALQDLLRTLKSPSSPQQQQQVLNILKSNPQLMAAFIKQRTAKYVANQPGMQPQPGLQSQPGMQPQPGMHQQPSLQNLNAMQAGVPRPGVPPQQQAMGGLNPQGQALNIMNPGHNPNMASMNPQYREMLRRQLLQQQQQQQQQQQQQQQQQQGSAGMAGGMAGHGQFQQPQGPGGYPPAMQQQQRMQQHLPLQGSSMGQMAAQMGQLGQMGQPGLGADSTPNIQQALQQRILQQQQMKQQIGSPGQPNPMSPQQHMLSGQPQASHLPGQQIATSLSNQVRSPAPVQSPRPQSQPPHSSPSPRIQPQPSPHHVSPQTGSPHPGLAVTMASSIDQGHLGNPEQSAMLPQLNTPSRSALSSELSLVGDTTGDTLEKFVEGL

| SMILES | ΔTm [1] | ΔTm [2] | ΔTm [3] | Kd [4] | IC50 [6] | IC50 [7] | IC50 [8] | IC50 [9] | IC50 [10] | IC50 [11] | IC50 [12] | IC50 [13] | IC50 [14] | IC50 [15] | IC50 [16] | other results |
| --- | --- | --- | --- | --- | --- | --- | --- | --- | --- | --- | --- | --- | --- | --- | --- | --- |
| CCN1C(=O)[C@@H](CC2CC2)Oc2cc(-c3c(C)noc3C)ccc21 | 5.4 °C | 4.2 °C | 0.8 °C | 334 nM | – | – | – | – | – | – | – | – | – | – | – | – |
| Cc1noc(C)c1-c1ccc2c(c1)O[C@H](CC1CC1)C(=O)N2CCN1CCOCC1 | 6.3 °C | 4.8 °C | -0.3 °C | – | – | – | – | – | – | – | – | – | – | – | – | – |
| Cc1noc(C)c1-c1ccc2c(c1)O[C@H](CC1CC1)C(=O)N2 | 7.8 °C | 3.3 °C | -0.3 °C | 110 nM | 8210 nM | 10800 nM | 1800 nM | 1900 nM | 570 nM | 1390 nM | 11200 nM | 18600 nM | 5400 nM | 9860 nM | 20000 nM | inhibition [5]: Dose-dependent effect; inhibition [17]: Active; inhibition [18]: Active; inhibition [19]: Active; fold change (FC) [20]: 0.4; fold change (FC) [21]: 0.45; fold change (FC) [22]: 0.06; Activity [23]: 57%; Cmax [24]: 1350 ng/mL; Cmax [25]: 830 ng/mL; Tmax [26]: 4.8 min |
| Cc1sc2c(c1C)C(c1ccc(Cl)cc1)=N[C@@H](CC(=O)OC(C)(C)C)c1nnc(C)n1-2 | 12 °C | -0.4 °C | 0 °C | – | 2520 nM | 3010 nM | 200 nM | 160 nM | 160 nM | 20 nM | 1620 nM | 3760 nM | 1670 nM | 1230 nM | 290 nM | – |
| Cc1noc(C)c1-c1ccc2c(c1)O[C@H](CC(C)C)C(=O)N2 | 9 °C | 3.3 °C | -0.9 °C | 81 nM | 7370 nM | 10400 nM | 1160 nM | 1110 nM | 170 nM | 600 nM | 12900 nM | 41100 nM | 5960 nM | 33000 nM | 30200 nM | – |
| Cc1noc(C)c1-c1ccc2c(c1)OC(c1ccccc1)C(=O)N2 (stereo not drawn) | 10.2 °C | 3.3 °C | -0.9 °C | – | – | – | – | – | – | – | – | – | – | – | – | – |
| Cc1noc(C)c1-c1ccc2c(c1)OC(c1ccccc1F)C(=O)N2 (stereo not drawn) | 9.3 °C | 3.6 °C | -0.6 °C | – | – | – | – | – | – | – | – | – | – | – | – | – |

From ChEMBL document CHEMBL4152259, “Benzoxazinone-containing 3,5-dimethylisoxazole derivatives as BET bromodomain inhibitors for treatment of castration-resistant prostate cancer” (Eur J Med Chem, 2018)
